Results as given in PubChem BioAssay (NCI).
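Tested at 5 concentrations; 48 h exposure; 96-well plates; endpoints linearly interpolated, else capped at highest concentration. GI50 marks 50% less growth. TGI: concentration producing complete growth inhibition.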

Assays:
Assay in all cases: NCI-60 cell line screen, 48 h
SN12C renal = tested on: SN12C renal
UACC-257 melanoma = tested on: UACC-257 melanoma
NCI/ADR-RES ovarian = tested on: NCI/ADR-RES ovarian
TK-10 renal = tested on: TK-10 renal
PC-3 prostate = tested on: PC-3 prostate
MALME-3M melanoma = tested on: MALME-3M melanoma
HCC-2998 colon = tested on: HCC-2998 colon
EKVX NSCLC = tested on: EKVX NSCLC
OVCAR-3 ovarian = tested on: OVCAR-3 ovarian
SK-MEL-2 melanoma = tested on: SK-MEL-2 melanoma
MCF7 breast = tested on: MCF7 breast
NCI-H522 lung = tested on: NCI-H522 lung
SK-MEL-5 melanoma = tested on: SK-MEL-5 melanoma
M14 melanoma = tested on: M14 melanoma
786-0 renal = tested on: 786-0 renal
UACC-62 melanoma = tested on: UACC-62 melanoma
ACHN renal = tested on: ACHN renal
OVCAR-4 ovarian = tested on: OVCAR-4 ovarian
T-47D breast = tested on: T-47D breast
RXF 393 renal = tested on: RXF 393 renal
NCI-H460 lung = tested on: NCI-H460 lung
NCI-H226 lung = tested on: NCI-H226 lung
HT29 colon = tested on: HT29 colon
SF-295 CNS = tested on: SF-295 CNS
HOP-92 NSCLC = tested on: HOP-92 NSCLC
CCRF-CEM leukemia = tested on: CCRF-CEM leukemia
HOP-62 NSCLC = tested on: HOP-62 NSCLC
KM12 colon = tested on: KM12 colon
COLO 205 colon = tested on: COLO 205 colon
SR leukemia = tested on: SR leukemia
SW-620 colon = tested on: SW-620 colon
OVCAR-8 ovarian = tested on: OVCAR-8 ovarian
A549 NSCLC = tested on: A549 NSCLC
NCI-H23 lung = tested on: NCI-H23 lung
SF-539 CNS = tested on: SF-539 CNS
U251 CNS = tested on: U251 CNS
UO-31 renal = tested on: UO-31 renal
OVCAR-5 ovarian = tested on: OVCAR-5 ovarian
SNB-19 CNS = tested on: SNB-19 CNS
CAKI-1 renal = tested on: CAKI-1 renal
A498 renal = tested on: A498 renal
DU-145 prostate = tested on: DU-145 prostate
RPMI-8226 leukemia = tested on: RPMI-8226 leukemia
SK-MEL-28 melanoma = tested on: SK-MEL-28 melanoma
LOX IMVI melanoma = tested on: LOX IMVI melanoma
HCT-116 colon = tested on: HCT-116 colon
IGROV1 ovarian = tested on: IGROV1 ovarian
HS 578T breast = tested on: HS 578T breast
K-562 leukemia = tested on: K-562 leukemia
SF-268 CNS = tested on: SF-268 CNS
HL-60(TB) leukemia = tested on: HL-60(TB) leukemia
BT-549 breast = tested on: BT-549 breast
SNB-75 CNS = tested on: SNB-75 CNS
MOLT-4 leukemia = tested on: MOLT-4 leukemia
MDA-MB-435 = tested on: MDA-MB-435
SK-OV-3 ovarian = tested on: SK-OV-3 ovarian
HCT-15 colon = tested on: HCT-15 colon
MDA-MB-231 breast = tested on: MDA-MB-231 breast

## Fc1ccc(-c2ncn(C3CCNCC3)c2-c2ccnc(Oc3ccc(Oc4ccccc4)cc3)n2)cc1
SN12C renal
  GI50: 3.57 µM
  TGI: 6.96 µM
UACC-257 melanoma
  GI50: 4.71 µM
  TGI: 8.54 µM
NCI/ADR-RES ovarian
  GI50: 3.48 µM
  TGI: 7.04 µM
TK-10 renal
  GI50: 4.35 µM
  TGI: 7.98 µM
PC-3 prostate
  GI50: 3.49 µM
  TGI: 6.87 µM
MALME-3M melanoma
  GI50: 4.68 µM
  TGI: 8.95 µM
HCC-2998 colon
  GI50: 3.15 µM
  TGI: 6.69 µM
EKVX NSCLC
  GI50: 3.87 µM
  TGI: 7.74 µM
OVCAR-3 ovarian
  GI50: 4.36 µM
  TGI: 7.94 µM
SK-MEL-2 melanoma
  GI50: 5.03 µM
  TGI: 9.06 µM
MCF7 breast
  GI50: 3.23 µM
  TGI: 6.9 µM
NCI-H522 lung
  GI50: 4.67 µM
  TGI: 8.7 µM
SK-MEL-5 melanoma
  GI50: 3.55 µM
  TGI: 6.82 µM
M14 melanoma
  GI50: 4.31 µM
  TGI: 7.99 µM
786-0 renal
  GI50: 4.03 µM
  TGI: 7.75 µM
UACC-62 melanoma
  GI50: 4.29 µM
  TGI: 7.78 µM
ACHN renal
  GI50: 3.77 µM
  TGI: 7.19 µM
OVCAR-4 ovarian
  GI50: 3.78 µM
  TGI: 7.27 µM
T-47D breast
  GI50: 4.45 µM
  TGI: 8.55 µM
RXF 393 renal
  GI50: 2.78 µM
  TGI: 6.1 µM
NCI-H460 lung
  GI50: 3.66 µM
  TGI: 7.28 µM
NCI-H226 lung
  GI50: 3.6 µM
  TGI: 7.53 µM
HT29 colon
  GI50: 2.13 µM
  TGI: 5.23 µM
SF-295 CNS
  GI50: 4.52 µM
  TGI: 8.84 µM
HOP-92 NSCLC
  GI50: 0.651 µM
  TGI: 4.15 µM
CCRF-CEM leukemia
  GI50: 5.22 µM
  TGI: 10.3 µM
HOP-62 NSCLC
  GI50: 4.05 µM
  TGI: 7.64 µM
KM12 colon
  GI50: 4.16 µM
  TGI: 7.8 µM
COLO 205 colon
  GI50: 2.48 µM
  TGI: 6.23 µM
SR leukemia
  GI50: 2.1 µM
  TGI: 6.42 µM
SW-620 colon
  GI50: 3.55 µM
  TGI: 7.06 µM
OVCAR-8 ovarian
  GI50: 4.2 µM
  TGI: 8.4 µM
A549 NSCLC
  GI50: 4.09 µM
  TGI: 7.84 µM
NCI-H23 lung
  GI50: 4.08 µM
  TGI: 7.9 µM
SF-539 CNS
  GI50: 4.2 µM
  TGI: 7.92 µM
U251 CNS
  GI50: 3.56 µM
  TGI: 7.18 µM
UO-31 renal
  GI50: 2.96 µM
  TGI: 6.29 µM
OVCAR-5 ovarian
  GI50: 4.1 µM
  TGI: 7.67 µM
SNB-19 CNS
  GI50: 4.25 µM
  TGI: 7.92 µM
CAKI-1 renal
  GI50: 3.92 µM
  TGI: 7.74 µM
A498 renal
  GI50: 3.57 µM
  TGI: 7.01 µM
DU-145 prostate
  GI50: 4.2 µM
  TGI: 7.75 µM
RPMI-8226 leukemia
  GI50: 4.99 µM
  TGI: 9.91 µM
SK-MEL-28 melanoma
  GI50: 4.27 µM
  TGI: 7.82 µM
LOX IMVI melanoma
  GI50: 3.15 µM
  TGI: 7.09 µM
HCT-116 colon
  GI50: 3.47 µM
  TGI: 6.76 µM
IGROV1 ovarian
  GI50: 3.78 µM
  TGI: 7.5 µM
HS 578T breast
  GI50: 1.73 µM
  TGI: 6.89 µM
K-562 leukemia
  GI50: 1.95 µM
  TGI: 5.74 µM
SF-268 CNS
  GI50: 3.94 µM
  TGI: 7.71 µM
HL-60(TB) leukemia
  GI50: 3.93 µM
  TGI: 8.33 µM
BT-549 breast
  GI50: 3.75 µM
  TGI: 7.1 µM
SNB-75 CNS
  GI50: 3.4 µM
  TGI: 6.67 µM
MOLT-4 leukemia
  GI50: 3.31 µM
  TGI: 7.59 µM
MDA-MB-435
  GI50: 3.92 µM
  TGI: 8.46 µM
SK-OV-3 ovarian
  GI50: 4.41 µM
  TGI: 7.9 µM
HCT-15 colon
  GI50: 3.55 µM
  TGI: 7.29 µM
MDA-MB-231 breast
  GI50: 3.71 µM
  TGI: 7.17 µM
